Source: patent publication US20130023574A1, “METHOD FOR GENERATING DATA SET FOR INTEGRATED PROTEOMICS, INTEGRATED PROTEOMICS METHOD USING DATA SET FOR INTEGRATED PROTEOMICS THAT IS GENERATED BY THE GENERATION METHOD, AND METHOD FOR IDENTIFYING CAUSATIVE SUBSTANCE USING SAME” (National University Corporation Kumamoto University, priority 2010, published 2013)

Assays:
U373 cells = experiment: Chemoresistance to TMZ (rate of living cells, absorbance) in glioma cell line U373; format: cell-based, human
Procedure: The experiment was carried out by inoculating the glioma cell line on a 96-well plate at the rate of 100 cells per well and adding TMZ at varying concentration ranging from 0 to 20 μM to each well after 5 hours of inoculation. After the plate was incubated for 6 days, absorbance at 450 nm was measured […]. The rate of living cells was expressed by percentage (%) at the defined concentrations of TMZ by setting the concentration rate of 0 μM as a control and as a standard rate of the living cells at the respective TMZ concentrations. […] In other words, it was found in the glioma cell line that the chemoresistance was increased to a higher extent as the variation expression amounts of vimentin were higher.
This experiment was implemented by inoculating a 6-well plate with glioma cells at the rate of 10^6 cells per well, followed by introduction of a vimentin siRNA or a control siRNA into the cells using lipofectamin 2000 after 24 hours of inoculation. […] After the plate was incubated for 6 days, absorbance at 450 nm was measured […]. […]
This experiment was implemented to investigate an influence of the PAK1-induced vimentin phosphorylation on the sensitivity to anticancer agents in the glioma cell line. […] After incubation for 6 days, the portion having absorbance at 420 nm was measured […]. The rate of living cells was expressed by percentage (%) at every set TMZ concentration by setting the TMZ concentration of 0 μM and absorbance for the stimulation with the PAK inhibitor as a standard living cell rate for the respective TMZ concentrations. […]
This experiment was carried out by inoculating a 96-well plate with the glioma cell line at the rate of 100 cells per well, followed by stimulation with 1 μM of Calpi or 1 μM of A23187 after 5 hours of inoculation and addition of TMZ at concentrations varying from 0 μM to 40 μM. After the glioma cell line was incubated for 6 days, the portion having absorbance at 420 nm was measured. […]

calpain = experiment: Fragmentation of vimentin in glioma cell line U373 by Western blotting; format: cell-based, human
Source text: In this experiment, calpain was activated A23187 (a calcium ionophor). After the glioma cell line U373 was stimulated with the calpain inhibitor and then confirmed by Western blotting. […] Therefore, it was confirmed that vimentin is cleaved with calpain.
It is known that, although the N-terminal serine residue of group A can be acetylated, the N-terminal amino acid sequence of the vimentin fragments of groups B, C and D, respectively, can be cleaved by calpain (FIGS. 41d, 45). Therefore, in order to confirm the phosphorylation of vimentin and the cleavage of the N-terminal vimentin with PAK1 and calpain, respectively, a pattern of the vimentin spots with GFP-vimentin (1-464.aa full length) overexpressed in the U373 glioma cell line was analyzed by 2D Western blotting using an anti-C-terminal vimentin antibody. […] Further, the particular fragmentation of vimentin was suppressed with the calpain inhibitor (FIG. 27).

Row | SMILES | resistance to anticancer agents (rate of living cells) (U373 cells; U373 cells, 1 μM A23187, TMZ 20 and 40 μM, 6 days, vs control) | fragmentation of vimentin (calpain) | medicine resistance of the U373 glioma cells (U373 cells; FIG. 33, stimulation plus TMZ) | sensitivity to anticancer agents (rate of living cells) (U373 cells; glioma cell line, 3 μg/ml ephrin A1 or 30 μM serotonin, TMZ 5, 10, 20 and 40 μM, 6 days, vs control)
1 | CNc1ccc2oc(C[C@H]3O[C@@]4(CC[C@H]3C)O[C@H]([C@H](C)C(=O)c3ccc[nH]3)[C@H](C)C[C@H]4C)nc2c1C(=O)O [A23187] | upregulated the resistance to anticancer agents significantly | enhanced the fragmentation |  | 
2 | NCCc1c[nH]c2ccc(O)cc12 [serotonin] |  |  | upregulated the medicine resistance | upregulated
